Toxicity, Potency and Binding data for 23 compounds are collected here from ChEMBL document CHEMBL1122450, “Biological effects of modified colchicines. 2. Evaluation of catecholic colchicines, colchifolines, colchicide, and novel N-acyl- and N-aroyldeacetylcolchicines” (J Med Chem, 1983).

Calls of active or inactive are those of the source. A value given as a limit tells only on which side of the number the result lay.

Data set [1] has as its system Mus musculus. Description: Toxicity found after a single intramuscular injection in mice. The note with it: in vivo, im.
For data set [2], the species on record is Mus musculus. Put plainly: Toxicity in the P388 NCI screen defined as the dose that caused an average wt. loss>3g in at least one out of set of mice or the death of one or more of mice. Type of data set: organism-based. The following applies: in vivo.
For data set [3], the system named is P388. Description: Potency against lymphocytic leukemia P388 screen in mice. Type of data set: functional, Mus musculus.
Data set [4] concerns Tubulin (Rattus norvegicus). The following applies: Brain, at 25 µM.
The species named for data set [5] is Mus musculus. Description: Toxicity in the P388 NCI screen in second assay. Type of data set: organism-based. The following applies: in vivo.
Data set [6] has as its system P388. Put plainly: Potency against lymphocytic leukemia P388 screen in mice; inactive. Type of data set: functional, cell-based. The following applies: Mus musculus.

As for `COc1cc2c(c(OC)c1OC)-c1ccc(OC)c(=O)cc1[C@@H](NC(C)=O)CC2` [COLCHICINE], the Toxicity in the data set with Mus musculus [1] worked out at 3 µM/kg; in the data set listed under Mus musculus [2] it was 2.5 µM/kg. Besides, the Potency in the data set with P388 [3] came to 0.4 µM/kg.

In turn, `CCC(=O)N[C@H]1CCc2cc(OC)c(OC)c(OC)c2-c2ccc(OC)c(=O)cc21` registered a Toxicity in the data set with Mus musculus [1] of 8.2 µM/kg.

`COc1cc2c(c(OC)c1OC)-c1ccc(OC)c(=O)cc1[C@@H](NC(=O)c1ccccc1)CC2`: the Toxicity worked out at 60.5 µM/kg in the data set on Mus musculus [1] and 4.3 µM/kg in the data set listed under Mus musculus [2]. This compound gave a Potency with P388 [3] of 1 µM/kg.

`COc1cc2c(c(OC)c1OC)-c1ccc(=O)c(OC)cc1[C@@H](NC(=O)CO)CC2` returned a Binding in data set [4] of 0%.

`COc1cc2c(c(OC)c1Oc1nnnn1-c1ccccc1)-c1ccc(OC)c(=O)cc1[C@@H](NC(C)=O)CC2` showed a Binding in data set [4] of 52%.

Consider `COc1cc2c(c(OC)c1OC)-c1ccc(OC)c(=O)cc1[C@@H](NC(=O)COc1ccccc1)CC2`, for which the Toxicity with Mus musculus [1] was 61.3 µM/kg; in the data set filed under Mus musculus [2], 5.1 µM/kg. Moreover, the Potency with P388 [3] is 1.3 µM/kg.

The compound `COc1cc2c(c(OC)c1OC)-c1ccc(OC)c(=O)cc1[C@@H](NC(=O)C(C)(C)C)CC2` gave a Toxicity in the data set on Mus musculus [1] of 9.3 µM/kg.

On to `CCC(=O)N[C@H]1CCc2cc(OC)c(OC)c(OC)c2-c2ccc(=O)c(OC)cc21`, for which, in data set [4], the Binding was 10%.

Regarding `COc1cc(C(=O)N[C@H]2CCc3cc(OC)c(OC)c(OC)c3-c3ccc(OC)c(=O)cc32)cc(OC)c1OC`, the figures for the Toxicity with Mus musculus [1] and in the data set listed under Mus musculus [2] were over 180 µM/kg and 72.6 µM/kg, respectively. The compound further came in with a Potency with P388 [3] of 14 µM/kg.

As for `CCOC(=O)N[C@H]1CCc2cc(OC)c(OC)c(OC)c2-c2ccc(OC)c(=O)cc21`, the figures for the Toxicity in the data set filed under Mus musculus [5] and in the data set filed under Mus musculus [2] were 1.5 µM/kg and 11.7 µM/kg, respectively.

As to `CCCC(=O)N[C@H]1CCc2cc(OC)c(OC)c(OC)c2-c2ccc(OC)c(=O)cc21`, the Toxicity in the data set on Mus musculus [1] and in the data set listed under Mus musculus [2] was 5.8 µM/kg each time. This compound also came in with a Potency in the data set on P388 [3] of 0.7 µM/kg.

`COc1c(Oc2nnnn2-c2ccccc2)cc2c(c1OC)-c1ccc(OC)c(=O)cc1[C@@H](NC(C)=O)CC2` came in with a Binding in data set [4] of 27%.

`COc1cc(/C=C/C(=O)N[C@H]2CCc3cc(OC)c(OC)c(OC)c3-c3ccc(OC)c(=O)cc32)cc(OC)c1O` returned a Binding in data set [4] of 69%.

In the case of `COc1c(O)c(O)cc2c1-c1ccc(OC)c(=O)cc1[C@@H](NC(C)=O)CC2`, the Toxicity in the data set on Mus musculus [1] is over 450 µM/kg; in the data set listed under Mus musculus [2] it was 54 µM/kg. The compound further gave a Potency in the data set on P388 [3] of 20 µM/kg.

Take `CCOCC(=O)N[C@H]1CCc2cc(OC)c(OC)c(OC)c2-c2ccc(OC)c(=O)cc21`: the Toxicity in the data set with Mus musculus [1] was 9 µM/kg; in the data set listed under Mus musculus [2], 2.8 µM/kg. The compound also yielded a Potency in the data set on P388 [3] of 0.4 µM/kg.

Turning to `COc1cc2c(c(OC)c1OC)-c1ccc(OC)c(=O)cc1[C@@H](N(C)C(=O)CO)CC2`, the Toxicity with Mus musculus [1] was 14.5 µM/kg; in the data set filed under Mus musculus [2], 2.9 µM/kg. This compound registered a Binding in data set [4] of 99%. The Potency in the data set with P388 [3] amounted to 0.6 µM/kg.

As to `COc1c2c(cc3c1-c1ccc(OC)c(=O)cc1[C@@H](NC(C)=O)CC3)OCO2`, the Toxicity was 9.7 µM/kg with Mus musculus [1] and 39.1 µM/kg in the data set filed under Mus musculus [2]. Moreover, the Potency with P388 [3] was under 10 µM/kg.

Consider `COc1cc2c(c(OC)c1O)-c1ccc(OC)c(=O)cc1[C@@H](NC(=O)C(F)(F)F)CC2`, for which the Toxicity was found to be 32.5 µM/kg with Mus musculus [1] and 23.5 µM/kg in the data set filed under Mus musculus [2]. Besides, the Binding in data set [4] is 96%. The Potency in the data set with P388 [3] came to 3.8 µM/kg.

Regarding `COc1cc2c(c(OC)c1OC)-c1ccc(OC)c(=O)cc1[C@@H](NC(=O)/C=C(\C)C=C=C(C)/C=C/C1=C(C)CCCC1(C)C)CC2`, the Binding in data set [4] is 41%.

For `COc1cc2c(c(OC)c1OC)-c1cccc(=O)cc1[C@@H](NC(C)=O)CC2` [CHOLCHICIDE], the Toxicity was determined as 168.9 µM/kg in the data set with Mus musculus [1] and 54.2 µM/kg in the data set listed under Mus musculus [2]. The Potency with P388 [3] stood at 9.2 µM/kg.

Regarding `COc1cc2c(c(OC)c1OC)-c1ccc(OC)c(=O)cc1[C@@H](NC(=O)CO)CC2` [COLCHIFOLINE], the Toxicity was 3.9 µM/kg in the data set on Mus musculus [1] and 3 µM/kg in the data set filed under Mus musculus [2]. This compound had a Potency in the data set on P388 [3] of 0.7 µM/kg.

For the compound `COc1cc2c(c3c1OCO3)-c1ccc(OC)c(=O)cc1[C@@H](NC(C)=O)CC2`, the Toxicity was over 167 µM/kg in the data set with Mus musculus [1] and 104 µM/kg in the data set filed under Mus musculus [2]. Further, in the data set on P388 [6], the Potency entry is “inactive”.

For `COc1cc2c(c(O)c1O)-c1ccc(OC)c(=O)cc1[C@@H](NC(C)=O)CC2`, the Toxicity is over 450 µM/kg with Mus musculus [1] and over 320 µM/kg in the data set filed under Mus musculus [2]. The Potency entry in the data set with P388 [6] is “inactive”.
